Results: paper PMC9100275, “Development of 1-(4-(Substituted)piperazin-1-yl)-2-((2-((4-methoxybenzyl)thio)pyrimidin-4-yl)oxy)ethanones That Target Poly (ADP-Ribose) Polymerase in Human Breast Cancer Cells” (Molecules, 2022)
Where two headings read alike, the source gives them in different places.

Experiments:
PARP1 [1] = molecular target: T1, PARP1 (Homo sapiens, UniProt P09874); assay: colorimetric PARP activity assay with recombinant human PARP enzyme; % inhibition at […] ([…] at […]); assay type: biochemical
T1 sequence (P09874 2-1014): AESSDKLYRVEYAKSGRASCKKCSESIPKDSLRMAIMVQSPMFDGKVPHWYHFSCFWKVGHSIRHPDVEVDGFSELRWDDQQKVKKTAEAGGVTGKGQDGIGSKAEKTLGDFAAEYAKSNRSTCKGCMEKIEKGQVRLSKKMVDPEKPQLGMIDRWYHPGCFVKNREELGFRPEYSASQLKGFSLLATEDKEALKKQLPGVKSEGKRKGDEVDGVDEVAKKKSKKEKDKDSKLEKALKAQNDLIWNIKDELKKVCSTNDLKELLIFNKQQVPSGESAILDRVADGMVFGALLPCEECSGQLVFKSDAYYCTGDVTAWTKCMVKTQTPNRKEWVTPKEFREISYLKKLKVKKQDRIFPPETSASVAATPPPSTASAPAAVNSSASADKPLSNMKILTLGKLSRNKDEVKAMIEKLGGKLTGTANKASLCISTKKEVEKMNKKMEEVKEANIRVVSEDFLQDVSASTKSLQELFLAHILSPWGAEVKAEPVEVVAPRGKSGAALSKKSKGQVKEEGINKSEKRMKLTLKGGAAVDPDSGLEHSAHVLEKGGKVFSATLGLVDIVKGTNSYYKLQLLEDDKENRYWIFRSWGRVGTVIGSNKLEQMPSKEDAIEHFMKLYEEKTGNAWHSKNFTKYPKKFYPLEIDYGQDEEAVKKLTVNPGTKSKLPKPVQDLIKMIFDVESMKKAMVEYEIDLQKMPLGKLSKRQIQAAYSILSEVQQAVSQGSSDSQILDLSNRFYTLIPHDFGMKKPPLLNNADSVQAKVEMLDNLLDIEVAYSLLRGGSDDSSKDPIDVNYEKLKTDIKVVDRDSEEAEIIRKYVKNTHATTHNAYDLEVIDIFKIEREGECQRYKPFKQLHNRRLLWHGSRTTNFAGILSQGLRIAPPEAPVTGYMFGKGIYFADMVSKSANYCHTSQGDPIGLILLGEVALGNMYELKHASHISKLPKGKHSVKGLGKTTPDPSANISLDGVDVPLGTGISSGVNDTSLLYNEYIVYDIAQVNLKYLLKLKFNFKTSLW

PARP1 [2] = molecular target: T1, PARP1; assay: as above; assay type: biochemical; remark: listed apart in the source

inhibition at 10 µM (PARP1 [1]) | inhibition at 10 µM (PARP1 [2]) | SMILES
70.3% |  | COc1ccc(CSc2nccc(OCC(=O)N3CCN(c4cccc(Cl)c4Cl)CC3)n2)cc1 [5a, 1-(4-(2,3-Dichlorophenyl)piperazin-1-yl)-2-((2-((4-methoxybenzyl)thio)pyrimidin-4-yl)oxy)ethanone]
 | 53% | COc1ccc(CSc2nccc(OCC(=O)N3CCN(c4ccc(C)cc4)CC3)n2)cc1 [5e, 2-((2-((4-Methoxybenzyl)thio)pyrimidin-4-yl)oxy)-1-(4-(p-tolyl)piperazin-1-yl)ethanone]
